{"source": "patent US5324725A", "about": "“7-fused 2-(piperazinoalkyl) indole derivatives, intermediates and compositions thereof” (Kali-Chemie Pharma GmbH, priority 1991, dated 1994)", "key": {"histamine (H1) receptor": {"biological_target": "T1, histamine (H1) receptor (Cavia porcellus, UniProt P31389)", "T1 construct": "isolated smooth muscle of the guinea-pig ileum; from tissue; host or cells: isolated ileum segments of Dunkin Hartley guinea-pigs", "T1 sequence (P31389 whole entry)": "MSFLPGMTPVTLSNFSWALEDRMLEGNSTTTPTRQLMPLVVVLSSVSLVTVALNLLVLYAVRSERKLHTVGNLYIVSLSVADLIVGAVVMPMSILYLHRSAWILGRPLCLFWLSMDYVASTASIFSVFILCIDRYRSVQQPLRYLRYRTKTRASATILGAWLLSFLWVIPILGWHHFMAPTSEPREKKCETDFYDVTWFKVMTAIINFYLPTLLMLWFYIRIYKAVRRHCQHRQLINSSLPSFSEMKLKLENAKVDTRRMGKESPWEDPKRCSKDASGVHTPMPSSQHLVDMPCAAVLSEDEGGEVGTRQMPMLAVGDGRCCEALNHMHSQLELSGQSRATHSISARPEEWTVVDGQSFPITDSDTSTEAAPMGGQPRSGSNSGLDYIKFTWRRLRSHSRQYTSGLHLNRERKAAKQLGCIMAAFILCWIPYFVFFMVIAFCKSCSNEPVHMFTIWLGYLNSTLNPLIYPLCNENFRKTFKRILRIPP", "test": "Antihistamine (H1) effect: inhibition of histamine-induced contractions of isolated guinea-pig ileum in vitro", "assay_type": "cell-based, guinea-pig (Dunkin Hartley)", "settings": "histamine 5 × 10^-6 mol/l, test substance 10^-6 mol/l", "procedure,_shortened": "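Dunkin Hartley guinea-pig ileum segments (300-500 g animals) in Krebs-Henseleit, pH 7.4, 5% CO2/95% O2, 1 g tension, isotonic recording. Compound at 10^-6 mol/l for 30 s before histamine 5×10^-6 mol/l; contraction measured over 30 s, repeated 10 min after washout, expressed as % inhibition.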"}, "cyclooxygenase": {"biological_target": "T2, cyclooxygenase (Mus musculus, UniProt P22437)", "T2 construct": "A cell suspension containing peritoneal cells of male mice 8-10 weeks old was obtained; endogenous in cells; host or cells: mouse peritoneal macrophages (male mice 8-10 weeks old), zymosan-stimulated", "T2 sequence (P22437 27-602)": "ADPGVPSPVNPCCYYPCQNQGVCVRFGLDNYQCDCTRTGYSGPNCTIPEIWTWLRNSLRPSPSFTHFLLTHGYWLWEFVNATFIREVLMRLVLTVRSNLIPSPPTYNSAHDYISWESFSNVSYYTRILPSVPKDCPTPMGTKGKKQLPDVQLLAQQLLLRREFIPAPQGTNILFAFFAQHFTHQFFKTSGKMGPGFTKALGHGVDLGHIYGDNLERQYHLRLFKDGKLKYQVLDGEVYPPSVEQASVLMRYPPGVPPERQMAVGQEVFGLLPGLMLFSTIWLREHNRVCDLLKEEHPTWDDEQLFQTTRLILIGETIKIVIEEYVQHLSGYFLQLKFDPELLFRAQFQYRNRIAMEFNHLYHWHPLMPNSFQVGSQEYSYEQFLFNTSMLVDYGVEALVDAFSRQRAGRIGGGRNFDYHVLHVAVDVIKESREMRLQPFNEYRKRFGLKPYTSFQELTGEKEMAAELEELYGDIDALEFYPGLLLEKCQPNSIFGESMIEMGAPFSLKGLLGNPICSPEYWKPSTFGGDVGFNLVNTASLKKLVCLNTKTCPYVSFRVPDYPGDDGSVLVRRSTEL", "test": "Cyclooxygenase inhibition: release of 6-keto-PGF1 α from zymosan-stimulated mouse peritoneal macrophage cells", "assay_type": "cell-based", "settings": "10^-5 mol/l, read-out: In vitro % inhibition effect on the release of 6-keto-PGF1 α", "from_the_text": "5. In vitro determination of cyclooxygenase inhibition and 5-lipoxygenase inhibition.\nAfter activation of the cell, arachidonic acid contained in cell membranes is metabolized in two ways. Leukotrienes, inter alia leukotriene C4, are formed under the action of the enzyme 5-lipoxygenase (5-LO), and prostanoids are formed under the action of the enzyme cyclooxygenase (CO). In in vitro systems, the metabolites are secreted from the cell.\nTo investigate the cyclooxygenase-inhibiting and the 5-lipoxygenase-inhibiting properties, the inhibitory effect of the test substances on the biosynthesis of the arachidonic acid derivatives leukotriene C4 (LTC4) and 6-ketoprostaglandin F1 α (6-keto-PGF1 α) is determined in vitro on mouse peritoneal macrophage cells. This was accomplished by determining the LTC4 and 6-keto-PGF1 α contents in a culture medium of mouse peritoneal macrophage cells by zymosan stimulation as described by Scott et al. (J. Exp. Med. 152 (1980), 324-335) and by Fradin et al. (Prostaglandins, 33 (1987), 579-589).\nA cell suspension containing peritoneal cells of male mice 8-10 weeks old was obtained in a known manner. A commercially available cell culture solution (RPMI 1640 from Messrs. Gibco) was used to which heparin (I0 international units/ml) and antibiotics were added according to the recipe of Bonney et al. (Biochem. J. 176 (1978) 422-433). The cell suspension was adjusted to a cell concentration of 10^6 cells per ml and distributed uniformly on titer plates containing […] (wells). These were kept for two hours in a humidified incubator filled with air enriched with 7% CO2. Cells not adhering to the titer cell walls were then removed by washing. The remaining macrophage cells adhering to the walls were incubated for about 12 hours in a suspension medium to which 0.1% bovine serum albumin (BSA) were added. The suspension medium was then replaced by a Hanks balanced salt solution (HBSS) containing 10 mM Hepes (hydroxyethyl-piperazinoethanesulfonic acid), to which a 0.1% strength solution of the test substances in aqueous, 1% strength dimethylformamide or only the solvent had been added. After 15 minutes the arachidonic acid metabolism was stimulated by adding 10 particles of zymosan (=glycoproteinmixture, isolated from cell walls of beer yeast, Saccharomyces cerevisiae, manufactured by Sigma Chemical Co., Munich) per titer cell. After 2 hours, samples of each of the supernatant liquids were investigated for their 6-keto-PGF1 α and LTC4 contents by means of an enzyme immunoassay (EIA) carried out by the method of Pradelles et al. (Analytical Chem. 57 (1985), 1170-1173). The determination of LTC4 and the determination of 6-keto-PGF1 α were each carried out in comparison with a comparative scale on suitable dilutions of the samples (1:50 to 1:250 for the LTC4 determination and 1:250 to 1:1250 for the 6-keto-PGF1 α determination). To determine the inhibitory effect of a 10^-5 molar concentration of the compounds, the amount of reference eicosanoids was determined and the inhibitory effect was calculated from this in % inhibition compared to the measurements of the zymosan controls."}, "[1]": {"settings": "after 30 sec., read-out: in vitro (H1) receptor antagonism % inhibitory effect on histamine-induced contractions of the Ileum, after 30 sec."}, "[2]": {"settings": "after 10 min. (after washing), read-out: in vitro (H1) receptor antagonism % inhibitory effect on histamine-induced contractions of the Ileum, after 10 min."}}, "note": "Like-named read-outs stand apart in the source and are kept apart here."}
{"smiles": "CCCCC1CCc2cc(OC)cc3c(CCN4CCN(c5cc(C)ccn5)CC4)c(C)n1c23", "note": "(stereo not drawn) [Example 63]", "values": [{"measurement": "inhibition at 1 µM", "setting": "histamine (H1) receptor; [1]", "value": 17, "unit": "%"}, {"measurement": "inhibition at 1 µM", "setting": "histamine (H1) receptor; [2]", "value": 67, "unit": "%"}, {"measurement": "inhibition at 10 µM", "setting": "cyclooxygenase", "value": 38, "unit": "%"}]}
{"smiles": "Cc1ccnc(N2CCN(CCc3c(C)n4c5c(cc(Br)cc35)CCC4)CC2)c1", "note": "[Example 9, 8-Bromo-2-methyl-1-{2-[4-(4-methylpyridin-2-yl)piperazin-1-yl]ethyl}-5,6-dihydro-4H-pyrrolo[3,2,1-ij]quinoline]", "values": [{"measurement": "inhibition at 1 µM", "setting": "histamine (H1) receptor; [1]", "value": 10, "unit": "%"}, {"measurement": "inhibition at 1 µM", "setting": "histamine (H1) receptor; [2]", "value": 78, "unit": "%"}, {"measurement": "inhibition at 10 µM", "setting": "cyclooxygenase", "value": 19, "unit": "%"}]}
{"smiles": "CC(=O)c1cc2c3c(c1)c(CCN1CCN(c4cc(C)ccn4)CC1)c(C)n3CCC2", "note": "[Example 67]", "values": [{"measurement": "inhibition at 1 µM", "setting": "histamine (H1) receptor; [1]", "value": 59, "unit": "%"}, {"measurement": "inhibition at 1 µM", "setting": "histamine (H1) receptor; [2]", "value": 93, "unit": "%"}, {"measurement": "inhibition at 10 µM", "setting": "cyclooxygenase", "value": 36, "unit": "%"}]}
{"smiles": "Cc1ccnc(N2CCN(CCc3c(C)n4c5c(cc(C(=O)c6ccccc6)cc35)CCC4)CC2)c1", "note": "[Example 66]", "values": [{"measurement": "inhibition at 1 µM", "setting": "histamine (H1) receptor; [1]", "value": 10, "unit": "%"}, {"measurement": "inhibition at 1 µM", "setting": "histamine (H1) receptor; [2]", "value": 71, "unit": "%"}, {"measurement": "inhibition at 10 µM", "setting": "cyclooxygenase", "value": 72, "unit": "%"}]}
{"smiles": "Cc1ccnc(N2CCN(CCc3c(C)n4c5c(ccc(Cl)c35)OCC4)CC2)c1", "note": "[Example 35]", "values": [{"measurement": "inhibition at 1 µM", "setting": "histamine (H1) receptor; [1]", "value": 25, "unit": "%"}, {"measurement": "inhibition at 1 µM", "setting": "histamine (H1) receptor; [2]", "value": 78, "unit": "%"}, {"measurement": "inhibition at 10 µM", "setting": "cyclooxygenase", "value": 51, "unit": "%"}]}
{"smiles": "Cc1ccnc(N2CCN(CCc3c(C)n4c5c(cc(C(=O)C(C)C)cc35)CCC4)CC2)c1", "note": "[Example 27, 5,6-dihydro-2-methyl-8-(2-methyl-1-oxopropyl)-1-{2-[4-(4-methylpyridin-2-yl)piperazin-1-yl]ethyl}-4H-pyrrolo-[3,2,1-ij]quinoline]", "values": [{"measurement": "inhibition at 1 µM", "setting": "histamine (H1) receptor; [1]", "value": 33, "unit": "%"}, {"measurement": "inhibition at 1 µM", "setting": "histamine (H1) receptor; [2]", "value": 92, "unit": "%"}, {"measurement": "inhibition at 10 µM", "setting": "cyclooxygenase", "value": 10, "unit": "%"}]}
{"smiles": "Cc1ccnc(N2CCN(CCc3c(C)n4c5c(cc(C(=O)C6CCCCC6)cc35)CCC4)CC2)c1", "note": "[Example 83]", "values": [{"measurement": "inhibition at 1 µM", "setting": "histamine (H1) receptor; [1]", "value": 12, "unit": "%"}, {"measurement": "inhibition at 1 µM", "setting": "histamine (H1) receptor; [2]", "value": 52, "unit": "%"}, {"measurement": "inhibition at 10 µM", "setting": "cyclooxygenase", "value": 29, "unit": "%"}]}
{"smiles": "Cc1ccnc(N2CCN(CCc3c(C)n4c5c(cc(N)cc35)CCC4)CC2)c1", "note": "[Example 20, 8-Amino-5,6-dihydro-2-methyl-1-{2-[4-(4-methylpyridin-2-yl)piperazin-1-yl]ethyl}-4H-pyrrolo[3,2,1-ij]quinoline]", "values": [{"measurement": "inhibition at 1 µM", "setting": "histamine (H1) receptor; [1]", "value": 27, "unit": "%"}, {"measurement": "inhibition at 1 µM", "setting": "histamine (H1) receptor; [2]", "value": 77, "unit": "%"}, {"measurement": "inhibition at 10 µM", "setting": "cyclooxygenase", "value": 42, "unit": "%"}]}
{"smiles": "Cc1ccc(N2CCN(CCc3c(C)n4c5c(cccc35)CCC4)CC2)nc1", "note": "[Example 42]", "values": [{"measurement": "inhibition at 1 µM", "setting": "histamine (H1) receptor; [1]", "value": 52, "unit": "%"}, {"measurement": "inhibition at 1 µM", "setting": "histamine (H1) receptor; [2]", "value": 54, "unit": "%"}, {"measurement": "inhibition at 10 µM", "setting": "cyclooxygenase", "value": 76, "unit": "%"}]}
{"smiles": "CCCCC1CCc2cc(O)cc3c(CCN4CCN(c5cc(C)ccn5)CC4)c(C)n1c23", "note": "(stereo not drawn) [Example 76]", "values": [{"measurement": "inhibition at 1 µM", "setting": "histamine (H1) receptor; [1]", "value": 3, "unit": "%"}, {"measurement": "inhibition at 1 µM", "setting": "histamine (H1) receptor; [2]", "value": 67, "unit": "%"}, {"measurement": "inhibition at 10 µM", "setting": "cyclooxygenase", "value": 67, "unit": "%"}]}
{"smiles": "Cc1ccnc(N2CCN(CCc3c(C)n4c5c(cc(CC(C)C)cc35)CCC4)CC2)c1", "note": "[Example 21, 5,6-Dihydro-2-methyl-8-(2-methylpropyl)-1-{2-[4-(4-methylpyridin-2-yl)piperazin-1-yl]ethyl}-4H-pyrrolo[3,2,1-ij]quinoline]", "values": [{"measurement": "inhibition at 1 µM", "setting": "histamine (H1) receptor; [1]", "value": 9, "unit": "%"}, {"measurement": "inhibition at 1 µM", "setting": "histamine (H1) receptor; [2]", "value": 56, "unit": "%"}, {"measurement": "inhibition at 10 µM", "setting": "cyclooxygenase", "value": 64, "unit": "%"}]}
{"smiles": "CNc1cc2c3c(c1)c(CCN1CCN(c4cc(C)ccn4)CC1)c(C)n3CCC2", "note": "[Example 80]", "values": [{"measurement": "in vitro (H1) receptor antagonism % inhibitory effect on histamine-induced contractions of the Ileum, after 30 sec.", "setting": "histamine (H1) receptor; after 30 sec.", "value": 15, "unit": "%"}, {"measurement": "in vitro (H1) receptor antagonism % inhibitory effect on histamine-induced contractions of the Ileum, after 10 min.", "setting": "histamine (H1) receptor; after 10 min. (after washing)", "value": 63, "unit": "%"}, {"measurement": "inhibition at 10 µM", "setting": "cyclooxygenase", "value": 12, "unit": "%"}]}
{"smiles": "Cc1ccnc(N2CCN(CCc3c(CO)n4c5c(cccc35)CCC4)CC2)c1", "note": "[Example 16, 5,6-dihydro-2-hydroxymethyl-1-{2-[4-(4-methylpyridin-2-yl)piperazin-1-yl]ethyl}-4H-pyrrolo[3,2,1-ij]quinoline]", "values": [{"measurement": "inhibition at 1 µM", "setting": "histamine (H1) receptor; [1]", "value": 42, "unit": "%"}, {"measurement": "inhibition at 1 µM", "setting": "histamine (H1) receptor; [2]", "value": 55, "unit": "%"}, {"measurement": "inhibition at 10 µM", "setting": "cyclooxygenase", "value": 18, "unit": "%"}]}
{"smiles": "Cc1ccnc(N2CCN(CCc3c(C)n4c5c(ccc(C(=O)C(C)C)c35)SCC4)CC2)c1", "note": "[Example 91]", "values": [{"measurement": "inhibition at 1 µM", "setting": "histamine (H1) receptor; [1]", "value": 16, "unit": "%"}, {"measurement": "inhibition at 1 µM", "setting": "histamine (H1) receptor; [2]", "value": 83, "unit": "%"}, {"measurement": "inhibition at 10 µM", "setting": "cyclooxygenase", "value": 54, "unit": "%"}]}
